US7439264B2, “Therapeutic compounds” (President and Fellows of Harvard College, priority 2002, dated 2008)
Values joined by “and” are separate entries in the source; they are usually repeats but may differ in a detail not shown here. Equal values may be shown once. “Also recorded” adds a separate entry of the source. Read-outs that look alike come from different tables or passages of the source.

Legend:
[1] = target: T1, dopamine transporter (DAT) (UniProt Q9GJT6); assay: Competition binding with [3H]WIN 35,428 at the dopamine transporter
T1 construct: Dopamine transporter IC50 (nM) [3H]WIN 35,428; other: unit not given
Procedure: (§1) The affinities (IC50) of the compounds for the dopamine and serotonin transporters were determined in competition studies using [3H]2β-carbomethoxy-3β-(4-fluorophenyl)-8-methyl-8-azabicyclo[3.2.1]octane ([^3H]WIN 35,428) to label the dopamine transporter and [^3H]citalopram to label the serotonin transporter. Competition studies were conducted with a fixed concentration of radioligand and a range of concentrations of the test compound. […] The cells were then exhaustively washed to remove non-covalently bound ligand and binding of cocaine (20 nM) and dopamine uptake (Vmax) were compared.

[2] = target: T2, human dopamine transporter (Homo sapiens, UniProt Q01959); assay: [3H]cocaine binding in hDAT HEK-293 cells after pre-incubation with compound and washing; conditions: for Inhibition of cocaine binding after 24 h (%): 24-h pre-incubation, cells extensively washed, [3H]cocaine 20 nM, HEK-293 hDAT; for irreversible binding to the DAT: 24 hour incubation, then washing
T2 construct: expressed in transfected cells; host or cells: HEK-293
T2 sequence (Q01959 whole entry): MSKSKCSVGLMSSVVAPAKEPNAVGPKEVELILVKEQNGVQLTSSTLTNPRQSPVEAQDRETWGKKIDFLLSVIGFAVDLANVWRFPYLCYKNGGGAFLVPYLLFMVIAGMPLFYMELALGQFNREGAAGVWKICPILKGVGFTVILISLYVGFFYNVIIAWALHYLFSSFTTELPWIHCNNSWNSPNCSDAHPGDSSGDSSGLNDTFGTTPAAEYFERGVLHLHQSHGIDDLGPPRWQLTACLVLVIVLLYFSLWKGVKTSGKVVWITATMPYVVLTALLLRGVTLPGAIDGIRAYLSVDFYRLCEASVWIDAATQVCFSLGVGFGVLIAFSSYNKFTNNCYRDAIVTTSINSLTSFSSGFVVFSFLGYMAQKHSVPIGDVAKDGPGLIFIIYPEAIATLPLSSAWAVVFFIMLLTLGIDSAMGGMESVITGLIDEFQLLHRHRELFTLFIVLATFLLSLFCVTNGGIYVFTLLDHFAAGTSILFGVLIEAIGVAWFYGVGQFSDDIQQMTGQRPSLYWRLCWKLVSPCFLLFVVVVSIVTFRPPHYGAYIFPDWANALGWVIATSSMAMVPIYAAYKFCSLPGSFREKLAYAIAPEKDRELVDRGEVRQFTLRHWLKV

[3] = target: serotonin transporter (SERT) (UniProt A7KAX8); assay: Competition binding with [3H]citalopram at the serotonin transporter
Procedure: as §1

[4] = target: T2, human dopamine transporter; assay: [3H]dopamine uptake in hDAT HEK-293 cells after pre-incubation with compound and washing; assay type: cell-based; design: Inhibition of DA uptake after 24 h (%) / Inhibition of DA uptake: concentration or dose not given beside the values; conditions: for Inhibition of DA uptake after 24 h (%): 24-h pre-incubation, cells extensively washed, HEK-293 hDAT; for decrease of [3H]dopamine transport / [3H]Dopamine transport % of control: 24 hour pre-incubation
DAT = DAT (Macaca fascicularis, UniProt Q9GJT6); conditions: quoted for known ligands; cited from earlier work
Chain of DAT (Q9GJT6 whole entry): as the sequence (Q01959 whole entry) above, with V24M, I137V, P194S, S198G, D200N, S201G, S202P counted along it

[5] = Table 5, read-out: Dopamine transporter IC50 (nM) [3H]WIN 35,428
[6] = unit inferred, read-out: DAT (binding, Table 6)
[7] = Table 5, read-out: Serotonin transporter IC50 (nM) [3H]citalopram
[8] = unit inferred, read-out: SERT (binding, Table 6)
[9] = 24 hour pre-incubation, O-1893 (1 uM)
[10] = 24 hours, concentration not stated (n=4)
[11] = 24 hour pre-incubation with O-2153

O=C(CCC1CO1)OCC1C2CCC(CC1c1ccc(Cl)c(Cl)c1)O2 (racemic) [Compound O-1834, 3-Oxiranyl-propionic acid [3α-(3,4-dichlorophenyl)-8-oxabicyclo[3.2.1]oct-3β-yl]methyl ester]
IC50 [1, 5]: 17 nM
IC50 [1, 6]: 17 nM
Inhibition of cocaine binding after 24 h (%) [2]: 18%
Inhibition of Cocaine Binding ([2]; Table 6, incub time 24 h): 18%
IC50 [3, 7]: 292 nM
IC50 [3, 8]: 294 nM
Inhibition of DA uptake after 24 h (%) [4]: 68%
Inhibition of DA uptake ([4]; Table 6, incub time 24 h): 68%

COC(=O)C1C2CCC(CC1c1ccc(Cl)c(Cl)c1)O2 (stereo not drawn) [2β-carbomethoxy-3α-(3′,4′-dichlorophenyl)-8-oxabicyclo[3.2.1]octane]
IC50 (DAT): 2.34 nM

COC(=O)[C@H]1[C@@H](OC(=O)c2ccccc2)C[C@@H]2CC[C@H]1N2C [(−)-Cocaine, cocaine, reference compound]
IC50 [1, 5]: 95 nM
IC50 [3, 7]: 270 nM

COCC(=O)OCCCN1C2CCC1C(C(=O)OC)C(c1ccc(F)cc1)C2 (stereo not drawn) [Compound O-1071, 2β-Carbomethoxy-3β-(4-fluorophenyl)-8-(3-methoxyacetoxypropyl)-8-azabicyclo[3 2.1]octane]
IC50 [1, 6]: 125 nM
Inhibition of Cocaine Binding ([2]; Table 6, incub time 24 h): 0%
IC50 [3, 8]: 3000 nM
Inhibition of DA uptake ([4]; Table 6, incub time 24 h): 0%

COC(=O)C1C(c2ccc(F)cc2)CC2CCC1N2CCOC(C)=O (stereo not drawn) [Compound O-1103, 2β-Carbomethoxy-3β-(4-fluorophenyl)-8-(2-acetoxyethyl)-8-azabicyclo[3.2.1]octane]
IC50 ([1]; read-out: DAT (binding, Table 6), unit inferred): 20 nM
Inhibition of Cocaine Binding ([2]; Table 6, incub time 24 h): 0%
IC50 ([3]; read-out: SERT (binding, Table 6), unit inferred): 200 nM
Inhibition of DA uptake ([4]; Table 6, incub time 24 h): 0%

COC(=O)C1C(c2ccc(F)cc2)CC2CCC1N2CCN1C(=O)C=CC1=O (stereo not drawn) [Compound O-1233, 2β-Carbomethoxy-3β-(4-fluorophenyl)-8-(2-maleimidoethyl)-8-azabicyclo[3.2.1]octane]
IC50 [1, 6]: 237 nM
Inhibition of Cocaine Binding ([2]; Table 6, incub time 1 h): 50%/1 h
IC50 [3, 8]: 3000 nM

CCN1C(=O)C=CC1=O [Compound O-1765]
Inhibition of Cocaine Binding ([2]; Table 6, incub time 24 h): 35%
Inhibition of DA uptake ([4]; Table 6, incub time 24 h): 35%

C=CCCC(=O)OCC1C2CCC(CC1c1ccc(Cl)c(Cl)c1)O2 (stereo not drawn) [Compound O-1893, pent-4-enoic acid-(3α-(3,4-dichlorophenyl)-8-oxabicyclo[3.2.1]oct-2β-yl)methyl ester]
IC50 [1, 5]: 20 nM
Inhibition of cocaine binding after 24 h (%) [2]: 63%
[3H]cocaine binding % of control ([2]; 1 hour pre-incubation): 12 % of control and 10 % of control and 7 % of control
irreversible binding to the DAT [2]: no irreversible binding took place
decline of specific [3H]cocaine binding sites ([2]; 24 hour pre-incubation, higher concentration (5 uM, different cells)): 62%
Tot- NS (dpms) [2, 9]: 3,154 dpms and 3,853 dpms and 4,913 dpms and 6,331 dpms
[3H]cocaine binding % of control [2, 9]: 45 % of control and 43 % of control and 42 % of control and 49 % of control
reduction of [3H]cocaine binding (CDPM) [2, 10]: more than 50%
IC50 [3, 7]: 593 nM
Inhibition of DA uptake after 24 h (%) [4]: 23%
Inhibition of DA uptake after 24 h (%) ([4]; listed as 3): much reduced; also recorded: no inhibition
Dopamine transport % of control ([4]; 1 hour pre-incubation): 29 % of control and 43 % of control and 27 % of control
decrease of [3H]dopamine transport ([4]; 1 uM): 5%
decrease of [3H]dopamine transport ([4]; higher concentration (5 uM, different cells)): 23% and 22%
[3H]Dopamine transport % of control ([4]; O-1893 (1 uM)): 91 % of control and 98 % of control and 95 % of control
[3H]Dopamine transport % of control ([4]; O-1893-2 (5 uM, different cells), 5 µM): 80 % of control and 72 % of control and 81 % of control and 90 % of control and 67 % of control
reduction of [3H]dopamine transport [4, 10]: reduced to a lesser extent
transporter affinity for dopamine ([4]; initially, within one hour of preincubation (n=3)): reduced

COC(=O)C1C(c2ccc(F)cc2)CC2CCC1N2CCOC(=O)CCC1CO1 (stereo not drawn) [Compound O-1899, 2β-Carbomethoxy-3β-(4-fluorophenyl)-8-[2-(3-oxiranylpropionyloxy)ethyl]-8-azabicyclo[3.2.1]octane]
IC50 [1, 6]: 53 nM
Inhibition of Cocaine Binding ([2]; Table 6, incub time 24 h): 0%
Inhibition of Cocaine Binding ([2]; Table 6, incub time 48 h): 40%
IC50 [3, 8]: 230 nM
Inhibition of DA uptake ([4]; Table 6, incub time 24 h): 0%
Inhibition of DA uptake ([4]; Table 6, incub time 48 h): 20%

CC(C)CC(=O)OCC1C2CCC(CC1c1ccc(Cl)c(Cl)c1)O2 (stereo not drawn) [Compound O-2059, 3-Methylbutanoic acid-[3α-(3,4-dichlorophenyl)-8-oxabicyclo[3.2.1]oct-2β-yl]methyl ester]
IC50 [1, 5]: 75 nM
Inhibition of cocaine binding after 24 h (%) [2]: 60%
IC50 [3, 7]: 515 nM
Inhibition of DA uptake after 24 h (%) [4]: 60%

CCCCC(=O)OCC1C2CCC(CC1c1ccc(Cl)c(Cl)c1)O2 (stereo not drawn) [Compound O-2102, Pentanoic acid-[3α-(3,4-dichlorophenyl)-8-oxabicyclo[3.2.1]oct-2β-yl]methyl ester]
IC50 [1, 5]: 71 nM
Inhibition of cocaine binding after 24 h (%) [2]: 0%
IC50 [3, 7]: 917 nM
Inhibition of DA uptake after 24 h (%) [4]: 0%

C=CCCCOCC1C2CCC(CC1c1ccc(Cl)c(Cl)c1)O2 (stereo not drawn) [Compound O-2153, 3α-(3,4-dichlorophenyl)-2β-pent-4-enyloxymethyl-8-oxabicyclo[3.2.1]octane]
IC50 [1, 5]: 58 nM
Inhibition of cocaine binding after 24 h (%) [2]: 80%
irreversible binding to the DAT [2]: bound irreversibly
Tot- NS (dpms) (column head not given, as Table 3) [2, 11]: 12,216 and 6,792
[3H]cocaine binding % of control (column head not given, as Table 3) [2, 11]: 28 and 18
IC50 [3, 7]: 755 nM
Inhibition of DA uptake after 24 h (%) [4]: 40%
[3H]Dopamine transport % of control (column head not given, as Table 3) [4, 11]: 51 and 54

C=CCOC(=O)C1C2CCC(CC1c1ccc(Cl)c(Cl)c1)O2 (centres unmarked) [Compound O-2227]
IC50 [1, 6]: 3 nM
Inhibition of Cocaine Binding ([2]; Table 6, incub time 1 h): 0%
Inhibition of Cocaine Binding ([2]; Table 6, incub time 24 h): 55%
IC50 [3, 8]: 32 nM
Inhibition of DA uptake ([4]; Table 6, incub time 1 h): 0%
Inhibition of DA uptake ([4]; Table 6, incub time 24 h): 40%

O=C(OCCN1C(=O)C=CC1=O)C1C(c2ccc(F)cc2)CC2CCC1N2CCN1C(=O)C=CC1=O (centres unmarked) [Compound O-2315]
IC50 [1, 6]: 2000 nM
IC50 [3, 8]: 14000 nM

O=C(OCCCN1C(=O)C=CC1=O)C1C(c2ccc(F)cc2)CC2CCC1N2CCN1C(=O)C=CC1=O (centres unmarked) [Compound O-2335]
IC50 [1, 6]: 300 nM
IC50 [3, 8]: 10000 nM

O=C(OCCCN1C(=O)C=CC1=O)C1C(c2ccc(F)cc2)CC2CCC1N2CCCN1C(=O)C=CC1=O (centres unmarked) [Compound O-2492]
IC50 [1, 6]: 237 nM
IC50 [3, 8]: 2000 nM

C=CCCC(=O)OCC1C(c2ccc(F)cc2)CC2CCC1N2C (centres unmarked) [Compound O-2517]
IC50 [1, 6]: 60 nM

C=CCCCOCC1C(c2ccc(F)cc2)CC2CCC1N2C (centres unmarked) [Compound O-2528]
IC50 [1, 6]: 41 nM

C=CCCNC(=O)C1C(c2ccc(F)cc2)CC2CCC1N2C (centres unmarked) [Compound O-2578]
IC50 [1, 6]: 800 nM

C=CCCNCC1C(c2ccc(F)cc2)CC2CCC1N2C (centres unmarked) [Compound O-2583]
IC50 [1, 6]: 500 nM

CCN1C(=O)C=CC1=O [N-Ethylmaleimide, N-ethylmaleimide, reference compound]
IC50 ([1]; read-out: Dopamine transporter IC50 (nM) [3H]WIN 35,428, Table 5): > 100000 nM
Inhibition of cocaine binding after 24 h (%) [2]: 35%
irreversible binding to the DAT [2]: did manifest irreversible binding
IC50 [3, 7]: > 100000 nM
Inhibition of DA uptake after 24 h (%) [4]: 35%

COC(=O)C1C(c2ccc(F)cc2)CC2CCC1N2C (stereo not drawn) [WIN 35,428, 2β-carbomethoxy-3β-(4-fluorophenyl)-8-methyl-8-azabicyclo[3.2.1]octane, reference compound]
IC50 [1, 5]: 11 nM
irreversible binding to the DAT [2]: did not bind irreversibly
IC50 [3, 7]: 160 nM
IC50 (DAT): 11 nM
